This note sets out measurements from patent US8535730B1, “Anticalculus oral composition” (Colgate-Palmolive Company, priority 1985, dated 2013).

How the values of data set [1] were obtained: The in vitro formation of HAP is measured titrimetrically via a pH stat procedure. Stock solutions of 0.1M CaCl2 and 0.1M NaH2PO4 are prepared fresh in carbonate-free deionized distilled water. To 23 ml CO2-free deionized water 1.0 ml. of the stock phosphate solution and 1.0 ml. of an aqueous solution of 1×10^−4 of the anticalculus agent being tested are added followed by 1.0 ml. of the stock calcium-chloride solution which initiates the reaction. The reaction is conducted at pH 7.4 under a nitrogen atmosphere. Consumption of 0.1N NaOH is recorded automatically from which the time required for crystal formation is determined.

Data set [2] deals with acid phosphatase, alkaline phosphatase, and inorganic pyrophosphatase. To be noted: for Percent Orthophosphate Released in 90 min.: pH 7.0, 37° C. The protocol:
Enzymatic hydrolysis is conducted in 100 millimolar morpholinopropane sulfonic acid—NaOH buffer solution (pH 7.0) containing 1.3 mg./ml of TSPP. Inhibitors of this invention are added (except to the control) to a final concentration of 1,000 ppm fluoride ion (from NaF) and 0.5% of the sodium salt of hydrolyzed methoxyethylene-maleic anhydride (1:1) copolymer, M.W. 70,000 (Gantrez S-97 Pharmaceutical Grade). Equal activities of acid phosphatase, alkaline phosphatase, and inorganic pyrophosphatase are then added to yield a total phosphatase activity of 0.3 units/ml. Samples of the test solution are taken and total orthophosphate available in each sample measured after 3 hours hydrolysis in 4N HCl at 100° C. The reaction mixture is incubated at 37° C. with shaking and aliquots taken at appropriate times through at least 90 minutes for orthophosphate determination.

Read-outs that look alike come from different tables or passages of the source.

Consider `O=P([O-])([O-])OP(=O)([O-])[O-].[Na+].[Na+].[Na+].[Na+]` [TSPP, Tetrasodium pyrophosphate], for which the “Time of Crystal Growth Inhibition” value amounted to 0.8 h in data set [1] (Water, pH 7.4, nitrogen atmosphere); 0.0 h in data set [1] (incubated with Alk. Phosphatase, pH 7.4); 0.3 h in data set [1] (incubated with Pyrophosphatase, pH 7.4); 0.4 h in data set [1] (incubated with Saliva, pH 7.4). The “Delay of HAP formation (in words)” value in data set [1] (in water) is reported as “significantly delays HAP formation”. For the same compound, the “Delay period of HAP formation (in words)” value in data set [1] (incubated with pyrophosphatase and alkaline phosphatase) was “drastically reduces the delay period”. In addition, the “Effectiveness in delaying HAP formation (in words)” value in data set [1] (incubated with saliva) is “drastically reduced”. The “Percent Orthophosphate Released in 90 min.” value came out at 98% in data set [2] (Control (no inhibitors), 1.3 mg./ml TSPP, total phosphatase activity 0.3 units/ml); 58% in data set [2] (With Inhibitors: 1,000 ppm fluoride ion (from NaF) and 0.5% Gantrez S-97, 0.3 units/ml phosphatase). Besides, the “Percent Relative Protection (reduction of hydrolysis of P-O-P bonds with inhibitors)” value in data set [2] (With inhibitors vs control, 90 min.) was 41%.

As to `O=P([O-])([O-])OP(=O)([O-])[O-].[K+].[K+].[K+].[K+]` [TKPP, tetrapotassium pyrophosphate], the “HAP formation inhibition results compared with TSPP (in words)” value in data set [1] (water, saliva, pyrophosphatase, alkaline phosphatase, TKPP instead of TSPP) is on record as “Substantially the same results”. In data set [2] (equivalent amounts of TKPP substituted for TSPP, with and without inhibitors), the “Enzymatic hydrolysis results compared with TSPP (in words)” value was “Substantially the same results”.
